Assay results from PMC6781194, “Synthesis, cytotoxicities, and carbonic anhydrase inhibition potential of 6-(3-aryl-2-propenoyl)-2(3H)-benzoxazolones” (Journal of Enzyme Inhibition and Medicinal Chemistry, 2019).

Key:
HSC-2 = experiment: Cytotoxic activity (MTT) against OSCC cell line HSC-2; type: cell-based, human; details: for increase in cytotoxicity compared to non-substituted compound 1: HSC-2 CC50 ratio versus compound 1; for CC50: Homo sapiens, HSC-2, 48 h incubation, MTT, triplicate; for PSE (B/A2)×100: potency-selectivity expression = mean CC50 normal cells / (CC50 HSC-2)^2 × 100; for TS (B/A): tumour specificity = mean CC50 normal cells (HGF, HPLF) / CC50 HSC-2; for increase in TS (selectivity) compared to compound 1: TS ratio versus compound 1
Experimental: (§1) Human normal oral mesenchymal cells, gingival fibroblast (HGF), and periodontal ligament fibroblast (HPLF) established from the first premolar tooth extracted from the lower jaw of a child[47] and human OSCC cell line HSC-2 (derived from tongue), purchased from Riken Cell Bank (Tsukuba, Japan), were cultured at 37 °C in DMEM supplemented with 10% heat-inactivated FBS, 100 units/ml penicillin G, and 100 µg/ml streptomycin sulphate under a humidified 5% CO2 atmosphere. HGF and HPLF cells at 10–18 population doubling levels were used in this study.
(§2) Cells were inoculated at 2.5 × 10^3 cells/0.1 ml in a 96-microwell plate (Becton Dickinson Labware, Franklin Lakes, NJ). After 48 h, the medium was replaced with 0.1 ml of fresh medium containing different concentrations of single test compounds. Cells were incubated further for 48 h and the relative viable cell number was then determined by the MTT method[22]^,[48–54]. All benzoxazolone derivatives were dissolved with DMSO at the concentration of 40 mM and stored until use. Control cells were treated with the same amounts of DMSO ([…], 0.03125, 0.0625, 0.125, 0.25, 0.5, and 1.0%) and the cell damage induced by DMSO was subtracted from that induced by test agents. In brief, cells were stained with MTT reagent, dissolved with DMSO, and the absorbance of the MTT-stained cell lysate was measured at 560 nm, using a microplate reader (Infinite F 50R, TECAN, Kawasaki, Japan). […]
(§3) Tumour specificity (TS) was calculated using the following equation: TS = Mean CC50 against three normal oral cell types (HGF, HPLF)/Mean CC50 against four OSCC cell lines (HSC-2). Since HGF cells were derived from gingival tissue, the relative sensitivity of these cells was also compared (as mean CC50 against HGF/mean CC50 against HSC-2).

[1] = Cytotoxic activity (MTT) against normal gingival fibroblast HGF; type: cell-based; details: human, HGF normal gingival fibroblasts, HGF normal oral cells, 48 h incubation
Experimental: as §1, §2

[2] = Cytotoxic activity (MTT) against normal periodontal ligament fibroblast HPLF; type: cell-based; details: human, HPLF normal periodontal ligament fibroblasts, HPLF normal oral cells, 48 h incubation
Experimental: as §1, §2

[3] = Cytotoxic activity (MTT), mean over human normal oral cells; type: cell-based; details: HGF and HPLF normal oral fibroblasts (mean of both), read-out: CC50 Human normal oral cells Mean (B)
Experimental: as §1, §2, §3

hCA I = hCA I (Homo sapiens, UniProt P00915); experiment: Carbonic anhydrase inhibition, hCA I; type: biochemical; details: for Ki: Lineweaver–Burk, three concentrations
Chain of hCA I (P00915 whole entry): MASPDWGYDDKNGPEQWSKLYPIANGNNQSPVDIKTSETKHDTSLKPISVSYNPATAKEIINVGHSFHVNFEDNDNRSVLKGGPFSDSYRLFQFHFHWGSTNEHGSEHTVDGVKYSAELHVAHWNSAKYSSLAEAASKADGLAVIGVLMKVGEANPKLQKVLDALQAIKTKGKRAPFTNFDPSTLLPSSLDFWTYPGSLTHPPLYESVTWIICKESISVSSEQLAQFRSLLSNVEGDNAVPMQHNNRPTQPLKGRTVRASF
Experimental: (§4) The purification of cytosolic CA isoenzymes (CA I and CA II) was previously described with a simple one-step method by a Sepharose-4B-L tyrosine-sulphanilamide affinity chromatography[42]^,[53]^,[55–58]. The protein quantity in the column effluents was determined spectrophotometrically at 280 nm. Sodium dodecyl sulphate-polyacrylamide gel electrophoresis (SDS-PAGE) was applied with a Bio-Rad Mini Gel system Mini-PROTEIN system (Bio-Rad Laboratories, Inc., Shanghai, China) after purification of both CA isoenzymes. Briefly, it was performed in acrylamide for the running (10%) and the stacking gel (3%) contained SDS (0.1%), respectively. […] Bovine serum albumin was used as a standard protein. The IC50 values were obtained from activity (%) versus compounds plots. For the calculation of Ki values, three different concentrations were used. The Lineweaver–Burk curves were drawn and calculations were realised as before.

hCA II = hCA II (Homo sapiens, UniProt P00918); experiment: Carbonic anhydrase inhibition, hCA II; type: biochemical; details: for Ki: Lineweaver–Burk, three concentrations
Experimental: as §4

IC50 (hCA I)	Ki (hCA I)	IC50 (hCA II)	Ki (hCA II)	melting point	Compound	increase in cytotoxicity compared to non-substituted compound 1 (HSC-2)	CC50 (HSC-2)	PSE (B/A2)×100 (HSC-2)	TS (B/A) (HSC-2)	CC50 at 48 h [1]	CC50 at 48 h [2]	CC50 at 48 h [3]	times more cytotoxic than 5-FU (HSC-2; HSC-2 CC50 ratio versus 5-FU)	times low cytotoxic than DXR (HSC-2; HSC-2 CC50 ratio versus DXR)	PSE value higher than 5-FU (HSC-2; PSE ratio versus 5-FU)	PSE value compared to compound 1 (HSC-2; PSE ratio versus compound 1)	increase in TS (selectivity) compared to compound 1 (HSC-2)	cytotoxicity reduced compared to compound 1 (HSC-2; HSC-2 CC50 ratio versus compound 1, decrease)
57.7 µM	28.4 ± 6.63 µM	18.1 µM	38 ± 2.36 µM	243 to 245 °C	O=C(C=Cc1ccc(OCc2ccccc2)cc1)c1ccc2[nH]c(=O)oc2c1 [Compound 8, 6-[3-(4-Benzyloxyphenyl)-2-propenoyl]-3H-benzoxazol-2-one]	1.9 times	11.9 µM	46	5.5	98 µM	32.7 µM	65.3 µM						
58.7 µM	70.6 ± 6.67 µM	40.5 µM	36.2 ± 13.3 µM	230 to 232 °C	O=C(C=Cc1ccccc1)c1ccc2[nH]c(=O)oc2c1 [Compound 1, 6-(3-Phenyl-2-propenoyl)-3H-benzoxazol-2-one]		22.1 µM	16	3.5	71 µM	83.3 µM	77.2 µM						
					COc1cccc2c1C(=O)c1c(O)c3c(c(O)c1C2=O)C[C@@](O)(C(=O)CO)C[C@@H]3O[C@H]1C[C@H](N)[C@H](O)[C@H](C)O1 [DXR, Doxorubicin, reference compound]		0.5 µM	>2030		0.7 µM	> 10 µM	> 5.3 µM						
					O=c1[nH]cc(F)c(=O)[nH]1 [Compound 5-FU, 5-Fluorouracil, reference compound]		37.7 µM	80.7		> 1000 µM	> 1000 µM	> 1000 µM						
52.1 µM	37.1 ± 7.77 µM	30.1 µM	33.3 ± 6.15 µM	220 to 222 °C	CC(C)c1ccc(C=CC(=O)c2ccc3[nH]c(=O)oc3c2)cc1 [Compound 6, 6-[3-(4-Isopropylphenyl)-2-propenoyl]-3H-benzoxazol-2-one]	2.2 times	10.1 µM	64	6.4	53 µM	76 µM	64.5 µM					1.8 times	
69.6 µM	63 ± 15.4 µM	48.5 µM	35.2 ± 8.36 µM	277 to 279 °C	O=C(C=Cc1cccc(O)c1)c1ccc2[nH]c(=O)oc2c1 [Compound 5, 6-[3-(3-Hydroxyphenyl)-2-propenoyl]-3H-benzoxazol-2-one]		6.9 µM	111	7.7	55.4 µM	50.3 µM	52.9 µM						
33 µM	38.8 ± 1.93 µM	45.6 µM	32.1 ± 6.6 µM	258 to 260 °C	Cc1ccc(C=CC(=O)c2ccc3[nH]c(=O)oc3c2)cc1 [Compound 2, 6-[3-(4-Metyhlphenyl)-2-propenoyl]-3H-benzoxazol-2-one]	2.2 times	10.1 µM	94	9.5	87.7 µM	105 µM	96.5 µM					2.7 times	
40.3 µM	52.3 ± 9.97 µM	29.7 µM	10.8 ± 2.14 µM	248 to 250 °C	CN(C)c1ccc(C=CC(=O)c2ccc3[nH]c(=O)oc3c2)cc1 [Compound 7, 6-[3-(4-Dimethylaminophenyl)-2-propenoyl]-3H-benzoxazol-2-one]		30.2 µM	8	2.4	76.3 µM	70 µM	73.2 µM						1.4 times
47.5 µM	30.5 ± 11.3 µM	48.1 µM	36.2 ± 10.3 µM	210 to 213 °C	COc1ccc(C=CC(=O)c2ccc3[nH]c(=O)oc3c2)cc1 [Compound 3, 6-[3-(4-Methoxyphenyl)-2-propenoyl]-3H-benzoxazol-2-one]	1.5 times	14.5 µM	41	5.9	88.3 µM	84 µM	86.2 µM						

Compound	IC50 (hCA I)	Ki (hCA I)	IC50 (hCA II)	Ki (hCA II)	melting point	increase in cytotoxicity compared to non-substituted compound 1 (HSC-2)	CC50 (HSC-2)	PSE (B/A2)×100 (HSC-2)	TS (B/A) (HSC-2)	CC50 at 48 h [1]	CC50 at 48 h [2]	CC50 at 48 h [3]	times more cytotoxic than 5-FU (HSC-2; HSC-2 CC50 ratio versus 5-FU)	times low cytotoxic than DXR (HSC-2; HSC-2 CC50 ratio versus DXR)	PSE value higher than 5-FU (HSC-2; PSE ratio versus 5-FU)	PSE value compared to compound 1 (HSC-2; PSE ratio versus compound 1)	increase in TS (selectivity) compared to compound 1 (HSC-2)	cytotoxicity reduced compared to compound 1 (HSC-2; HSC-2 CC50 ratio versus compound 1, decrease)
O=C(C=Cc1ccc(C(F)(F)F)cc1)c1ccc2[nH]c(=O)oc2c1 [Compound 4, 6-[3-(4-Trifluoromethylphenyl)-2-propenoyl]-3H-benzoxazol-2-one]	29.7 µM	30.8 ± 3.49 µM	45 µM	19.2 ± 2.19 µM		5.5 times	4 µM	159	6.4	24.7 µM	26.3 µM	25.5 µM	9.4 times	8 times	about 2 times	9.9 times	1.8 times	
